Results on 14 molecules are retold here after ChEMBL document CHEMBL1121806, “Inhibition of the renin-angiotensin system. A new approach to the therapy of hypertension” (J Med Chem, 1981).

A word on the Km: it is the concentration of substrate that gives half-maximal velocity. One may read the Ki as a dissociation constant, usually derived from enzyme kinetics or from competition with a known ligand. Low values mean a stronger hold on the target, high ones a looser hold on the target.

Starred links: 1 amine or outer side, 2 acyl side, 3 side chain; linkers in the order of their positions; H or OH if unused. Non-standard residues stand in square brackets, D forms with d. Residues, ends and D or L forms follow the SMILES beside them. ξ: configuration not given here. *: point of attachment. Sta(3ξ) = CC(C)C[C@H](N[*:1])C(O)CC(=O)[*:2]; Isovaleryl = CC(C)CC(=O)*

To fix the notation:
T1: Renin (Homo sapiens, UniProt P00797)
T1 sequence (P00797 whole entry): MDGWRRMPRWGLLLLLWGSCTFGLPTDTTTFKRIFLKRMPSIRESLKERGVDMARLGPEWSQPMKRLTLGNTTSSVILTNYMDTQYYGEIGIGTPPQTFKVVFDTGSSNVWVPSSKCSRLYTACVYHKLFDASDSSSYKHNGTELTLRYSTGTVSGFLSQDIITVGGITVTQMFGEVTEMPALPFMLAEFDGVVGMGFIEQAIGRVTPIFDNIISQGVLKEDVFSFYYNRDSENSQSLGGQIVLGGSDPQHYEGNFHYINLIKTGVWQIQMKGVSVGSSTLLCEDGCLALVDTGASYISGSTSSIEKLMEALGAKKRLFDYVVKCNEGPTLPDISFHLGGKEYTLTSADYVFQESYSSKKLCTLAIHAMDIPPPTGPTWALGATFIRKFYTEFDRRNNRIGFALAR

B1: Renin (Homo sapiens), P00797 (protein)
chain: T1 sequence (P00797 whole entry)

Substrate in one data set: CC[C@H](C)[C@H](NC(=O)[C@H](Cc1ccc(O)cc1)NC(=O)[C@@H](NC(=O)[C@H](CCCN=C(N)N)NC(=O)[C@@H](N)CC(=O)O)C(C)C)C(=O)N[C@@H](Cc1c[nH]cn1)C(=O)N1CCC[C@H]1C(=O)N[C@@H](Cc1ccccc1)C(=O)N[C@@H](Cc1c[nH]cn1)C(=O)N[C@@H](CC(C)C)C(=O)O
Kind of data set: The compound was tested for its antihypertensive activity against human renin. It is filed as functional.
In the case of B1, the Km turned out to be 50 µM.

In a further data set the target is T1, Renin. The data set can be described thus: Antihypertensive activity against human renin.
`CC(C)C[C@H](NC(=O)[C@H](Cc1cnc[nH]1)NC(=O)[C@H](Cc1ccccc1)NC(=O)[C@H]1CCCN1C(=O)[C@H](Cc1cnc[nH]1)NC(=O)[C@H]1CCCN1)C(=O)N[C@@H](CC(C)C)C(=O)N[C@H](C(=O)N[C@@H](Cc1ccc(O)cc1)C(=O)O)C(C)C` registered a Ki of 42000 nM.

Consider `C[C@H](CC(=O)NO)C(=O)N1CCC[C@H]1C(=O)O`, for which the Ki came out at 600 nM. This Ki lies about 70-fold lower than the previous one.

In the case of `C[C@@H](NC(=O)[C@H](Cc1ccccc1)NP(=O)(O)Oc1ccccc1)C(=O)O`, the Ki stood at 2200 nM.

In the case of `CC(C)C[C@H](NC(=O)[C@H](Cc1cnc[nH]1)NC(=O)[C@H](Cc1ccccc1)NC(=O)[C@H]1CCCN1C(=O)[C@H](Cc1cnc[nH]1)NC(=O)[C@H]1CCCN1)C(=O)N[C@@H](Cc1ccccc1)C(=O)N[C@H](C(=O)N[C@@H](Cc1ccc(O)cc1)C(=O)O)C(C)C`, the affinity corresponds to a Ki of 4000 nM. Compared with the last molecule, the Ki is about 1.8-fold higher.

For `CC(C)[C@H](NC(=O)[C@H](Cc1ccccc1)NC(=O)[C@H](Cc1ccccc1)NC(=O)[C@H](Cc1c[nH]cn1)NC(=O)[C@H](Cc1ccccc1)NC(=O)[C@H]1CCCN1C(=O)[C@H](Cc1c[nH]cn1)NC(=O)[C@H]1CCCN1)C(=O)N[C@@H](Cc1ccc(O)cc1)C(=O)O`, the Ki was found to be 1000 nM.

As for `C[C@H](CC(=O)O)C(=O)N1CCC[C@H]1C(=O)O`, the Ki came out at 2500 nM.

Molecule `C[C@H](CCC(=O)O)C(=O)N1CCC[C@H]1C(=O)O` had a Ki of 800 nM. This Ki lies about 3.1-fold lower than the previous one.

Turning to H-EWPRPQIPP-OH, the affinity, expressed as Ki, was 800 nM.

`CC(C)CC(=O)N[C@H](C(=O)N[C@H](C(=O)N[C@@H](CC(C)C)C(O)CC(=O)N[C@@H](C)C(=O)N[C@@H](CC(C)C)C(O)CC(=O)N[C@@H](CCCN=C(N)N)C(=O)O)C(C)C)C(C)C` (some centres undefined) (Isovaleryl-VV[Sta(3ξ)]A[Sta(3ξ)]R-OH) returned a Ki of 100 nM. Against the preceding molecule, the Ki is about 8-fold lower.

In the case of `C[C@H](NC(CCc1ccccc1)C(=O)O)C(=O)N1CCC[C@H]1C(=O)O` (some centres undefined), the affinity corresponds to a Ki of 1.2 nM.

In turn, `C[C@H](CS)C(=O)N1CCC[C@H]1C(=O)O` [CAPTOPRIL] showed a Ki of 1.7 nM.

Consider `C[C@H](NP(=O)(O)Oc1ccccc1)C(=O)N1CCC[C@H]1C(=O)O`, for which the Ki amounted to 1 nM.

For `COC(=O)[C@H](CCCN=C(N)N)NC(=O)CC(O)[C@H](CC(C)C)NC(=O)[C@H](C)NC(=O)CC(O)[C@H](CC(C)C)NC(=O)[C@@H](NC(=O)[C@@H](NC(=O)CC(C)C)C(C)C)C(C)C` (some centres undefined) (Isovaleryl-VV[Sta(3ξ)]A[Sta(3ξ)]R-OMe), affinity was put at a Ki of 300 nM.
